In US20240277689A1, “METHOD OF TREATING AN AUTOIMMUNE HEMATOLOGICAL DISORDER” (Novartis AG, priority 2021, published 2024):

Columns and labels:
AP activity (Wieslab) = test: First in human (FIH) studies: suppression of AP activity (Wieslab); type: in vivo
Method: In the FIH studies, there was rapid suppression of the AP activity (Wieslab) with approximately 80% or greater inhibition achieved at two hours post-dose for participants receiving single dose of 200 mg iptacopan. The suppression of the AP (80% or greater inhibition) was sustained over 14 days of dosing at 200 mg b.i.d. The exposure-response model developed with data from the FIH study with iptacopan in healthy volunteers predicts that a dose of about 200 mg b.i.d. would be needed to achieve >90% inhibition of the AP (Wieslab assay) in most participants. Preclinical studies supported acceptable safety margins for human exposure following 200 mg b.i.d. dosing.
Given the observed PK/PD profile in a first in human study in healthy volunteers, a 200 mg b.i.d dose of iptacopan is selected for this study.

[1] = test system: complement alternative pathway; settings: multiple in vitro and in vivo non-clinical mechanistic studies; cited from earlier work

CCO[C@H]1CCN(Cc2c(OC)cc(C)c3[nH]ccc23)[C@H](c2ccc(C(=O)O)cc2)C1 [iptacopan, 4-((2S,4S)-(4-ethoxy-1-((5-methoxy-7-methyl-1H-indol-4-yl)methyl)piperidin-2-yl))benzoic acid]
suppression of the AP (inhibition), sustained (AP activity (Wieslab); over 14 days of dosing at 200 mg b.i.d.): ≥ 80% | inhibition of AP activity (Wieslab) (AP activity (Wieslab); two hours post-dose, single dose of 200 mg, FIH participants): ≥ 80% | inhibition of the complement alternative pathway [1]: demonstrated inhibition of the complement alternative pathway
